From patent US9708314B2, “Heterocyclic amide compound” (NISSAN CHEMICAL INDUSTRIES, LTD., priority 2013, dated 2017)

Assays:
Format in all cases: in vivo
Scirpus juncoides = assay: Test Example 1: herbicidal activity, application before weed generation in submerged conditions; conditions: Seventeenth Table
How it was run: (§1)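 Water-diluted emulsion formulation is applied onto flood water (4 cm deep) covering alluvial soil on the day weed seeds are sown, after transplanting 2.5 leaf stage rice. Rates are expressed per hectare. Injury or control is graded 0–5 three weeks later.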

Monochoria vaginalis = assay: as above; conditions: Seventeenth Table
How it was run: as §1

[1] = tested on: Echinochloa oryzacola Vasing.; assay: as above; conditions: Seventeenth Table
How it was run: as §1

Abutilon theophrasti = assay: Test Example 4: herbicidal effect by application to foliage (diluvial soil, plastic box); conditions: for M (Abutilon theophrasti) herbicidal effect grade: foliage application
How it was run: (§2)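 Greenhouse plants (25° C. to 30° C., 14 d, diluvial soil) receive a foliar spray of water-diluted emulsifiable formulation at defined g/ha. Grading after 3 weeks uses a six-step herbicidal-ratio scale, with 4 covering 70% to <90% and 1 covering 5% to <20%.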

[2] = tested on: Echinochloa crus-galli var. crus-galli; assay: as above; conditions: for H (Echinochloa crus-galli var. crus-galli) herbicidal effect grade: foliage application
How it was run: as §2

Galium spurium = assay: as above; conditions: for Q (Galium spurium) herbicidal effect grade: foliage application
How it was run: as §2

Lolium multiflorum Lam. = assay: as above; conditions: for K (Lolium multiflorum Lam.) herbicidal effect grade: foliage application
How it was run: as §2

Digitaria ciliaris = assay: as above; conditions: for F (Digitaria ciliaris) herbicidal effect grade: foliage application
How it was run: as §2

Alopecurus myosuroides = assay: as above; conditions: for J (Alopecurus myosuroides) herbicidal effect grade: foliage application
How it was run: as §2

Chenopodium album = assay: as above; conditions: for O (Chenopodium album) herbicidal effect grade: foliage application
How it was run: as §2

Setaria viridis = assay: as above; conditions: for G (Setaria viridis) herbicidal effect grade: foliage application
How it was run: as §2

Veronica persica = assay: as above; conditions: for R (Veronica persica) herbicidal effect grade: foliage application
How it was run: as §2

Avena fatua = assay: as above; conditions: for I (Avena fatua) herbicidal effect grade: foliage application
How it was run: as §2

Apera spica-venti. = assay: as above; conditions: for L (Apera spica-venti.) herbicidal effect grade: foliage application
How it was run: as §2

[3] = Application herbicide amount 288 g/ha
[4] = Application herbicide amount 192 g/ha
[5] = Application herbicide amount 141 g/ha
[6] = application to foliage, 141 g/ha

SMILES: C=CCSc1nnc2c(C(=O)Nc3nnco3)ccc(C(F)(F)F)n12 [1-128]
- B: Scirpus juncoides (herbicidal effect grade) (Scirpus juncoides; [3]): 4 (Herbicidal ratio of 70% or more and less than 90%)
- C: Monochoria vaginalis (herbicidal effect grade) (Monochoria vaginalis; [3]): 2 (Herbicidal ratio of 20% or more and less than 40%)
- A: Echinochloa oryzicola Vasing. (herbicidal effect grade) [1, 3]: 5 (Herbicidal ratio of 90% or more (almost completely withered))
- M (Abutilon theophrasti) herbicidal effect grade (Abutilon theophrasti; [3]): 3 (Herbicidal ratio of 40% or more and less than 70%)
- H (Echinochloa crus-galli var. crus-galli) herbicidal effect grade [2, 3]: 5 (Herbicidal ratio of 90% or more (almost completely withered))
- Q (Galium spurium) herbicidal effect grade (Galium spurium; [3]): 1 (Herbicidal ratio of 5% or more and less than 20%)
- K (Lolium multiflorum Lam.) herbicidal effect grade (Lolium multiflorum Lam.; [3]): 1 (Herbicidal ratio of 5% or more and less than 20%)
- F (Digitaria ciliaris) herbicidal effect grade (Digitaria ciliaris; [3]): 5 (Herbicidal ratio of 90% or more (almost completely withered))
- J (Alopecurus myosuroides) herbicidal effect grade (Alopecurus myosuroides; [3]): 1 (Herbicidal ratio of 5% or more and less than 20%)
- O (Chenopodium album) herbicidal effect grade (Chenopodium album; [3]): 5 (Herbicidal ratio of 90% or more (almost completely withered))
- G (Setaria viridis) herbicidal effect grade (Setaria viridis; [3]): 2 (Herbicidal ratio of 20% or more and less than 40%)
- R (Veronica persica) herbicidal effect grade (Veronica persica; [3]): 5 (Herbicidal ratio of 90% or more (almost completely withered))
- I (Avena fatua) herbicidal effect grade (Avena fatua; [3]): 0 (Herbicidal ratio of 5% or less (almost no effect))
- L (Apera spica-venti.) herbicidal effect grade (Apera spica-venti.; [3]): 1 (Herbicidal ratio of 5% or more and less than 20%)

SMILES: Cc1cc(C(=O)Nc2nnnn2C)c2nnc(C(C)C)n2c1C(F)(F)F [2-050]
- B: Scirpus juncoides (herbicidal effect grade) (Scirpus juncoides; [4]): 2 (Herbicidal ratio of 20% or more and less than 40%)
- C: Monochoria vaginalis (herbicidal effect grade) (Monochoria vaginalis; [4]): 3 (Herbicidal ratio of 40% or more and less than 70%)
- A: Echinochloa oryzicola Vasing. (herbicidal effect grade) [1, 4]: 4 (Herbicidal ratio of 70% or more and less than 90%)
- M (Abutilon theophrasti) herbicidal effect grade (Abutilon theophrasti; 192 g/ha): 3 (Herbicidal ratio of 40% or more and less than 70%)
- H (Echinochloa crus-galli var. crus-galli) herbicidal effect grade ([2]; 192 g/ha): 3 (Herbicidal ratio of 40% or more and less than 70%)
- Q (Galium spurium) herbicidal effect grade (Galium spurium; 192 g/ha): 0 (Herbicidal ratio of 5% or less (almost no effect))
- K (Lolium multiflorum Lam.) herbicidal effect grade (Lolium multiflorum Lam.; 192 g/ha): 0 (Herbicidal ratio of 5% or less (almost no effect))
- F (Digitaria ciliaris) herbicidal effect grade (Digitaria ciliaris; 192 g/ha): 3 (Herbicidal ratio of 40% or more and less than 70%)
- J (Alopecurus myosuroides) herbicidal effect grade (Alopecurus myosuroides; 192 g/ha): 0 (Herbicidal ratio of 5% or less (almost no effect))
- O (Chenopodium album) herbicidal effect grade (Chenopodium album; 192 g/ha): 5 (Herbicidal ratio of 90% or more (almost completely withered))
- G (Setaria viridis) herbicidal effect grade (Setaria viridis; 192 g/ha): 1 (Herbicidal ratio of 5% or more and less than 20%)
- R (Veronica persica) herbicidal effect grade (Veronica persica; 192 g/ha): 3 (Herbicidal ratio of 40% or more and less than 70%)
- I (Avena fatua) herbicidal effect grade (Avena fatua; 192 g/ha): 2 (Herbicidal ratio of 20% or more and less than 40%)
- L (Apera spica-venti.) herbicidal effect grade (Apera spica-venti.; 192 g/ha): 0 (Herbicidal ratio of 5% or less (almost no effect))

SMILES: CCN(C)c1nnc2c(C(=O)Nc3nnnn3C)ccc(C(F)(F)F)n12 [2-088]
- B: Scirpus juncoides (herbicidal effect grade) (Scirpus juncoides; [5]): 5 (Herbicidal ratio of 90% or more (almost completely withered))
- C: Monochoria vaginalis (herbicidal effect grade) (Monochoria vaginalis; [5]): 5 (Herbicidal ratio of 90% or more (almost completely withered))
- A: Echinochloa oryzicola Vasing. (herbicidal effect grade) [1, 5]: 5 (Herbicidal ratio of 90% or more (almost completely withered))
- herbicidal effect, M (Abutilon theophrasti) (Abutilon theophrasti; [6]): 5 (Herbicidal ratio of 90% or more (almost completely withered))
- herbicidal effect, H (Echinochloa crus-galli var. crus-galli) [2, 6]: 5 (Herbicidal ratio of 90% or more (almost completely withered))
- herbicidal effect, Q (Galium spurium) (Galium spurium; [6]): 3 (Herbicidal ratio of 40% or more and less than 70%)
- herbicidal effect, K (Lolium multiflorum Lam.) (Lolium multiflorum Lam.; [6]): 3 (Herbicidal ratio of 40% or more and less than 70%)
- herbicidal effect, F (Digitaria ciliaris) (Digitaria ciliaris; [6]): 5 (Herbicidal ratio of 90% or more (almost completely withered))
- herbicidal effect, J (Alopecurus myosuroides) (Alopecurus myosuroides; [6]): 3 (Herbicidal ratio of 40% or more and less than 70%)
- herbicidal effect, O (Chenopodium album) (Chenopodium album; [6]): 5 (Herbicidal ratio of 90% or more (almost completely withered))
- herbicidal effect, G (Setaria viridis) (Setaria viridis; [6]): 5 (Herbicidal ratio of 90% or more (almost completely withered))
- herbicidal effect, R (Veronica persica) (Veronica persica; [6]): 4 (Herbicidal ratio of 70% or more and less than 90%)
- herbicidal effect, I (Avena fatua) (Avena fatua; [6]): 4 (Herbicidal ratio of 70% or more and less than 90%)
- herbicidal effect, L (Apera spica-venti.) (Apera spica-venti.; [6]): 4 (Herbicidal ratio of 70% or more and less than 90%)
